Measurements as given in patent publication US8952024B2, “Herbicidal pyrimidone derivatives” (E I du Pont de Nemours and Company, priority 2009, dated 2015).

What was measured:
Format in all cases: in vivo
[1] = system: velvetleaf (Abutilon theophrasti); assay: Test A pre-/postemergence plant response
Outline: (§1)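 Visual injury rating on a 0–100 scale (0 = no effect, 100 = complete control) was made versus untreated controls after about ten days in the greenhouse. Compounds, formulated in a non-phytotoxic solvent mix containing surfactant, were sprayed preemergence onto loam/sand soil and postemergence onto one- to two-leaf plants.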

[2] = system: morningglory (Ipomoea spp.); assay: Test A pre-/postemergence plant response
Outline: as §1

[3] = system: wheat (Triticum aestivum); assay: Test A pre-/postemergence plant response
Outline: as §1

[4] = system: large crabgrass (Digitaria sanguinalis); assay: Test A pre-/postemergence plant response
Outline: as §1

[5] = system: giant foxtail (Setaria faberii); assay: Test A pre-/postemergence plant response
Outline: as §1

corn (Zea mays) = assay: Test A pre-/postemergence plant response
Outline: as §1

[6] = system: galium (catchweed bedstraw, Galium aparine); assay: Test B pre-/postemergence plant response; details: Preemergence
Outline: (§2)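 Visually scored on a 0 to 100 scale after 13 to 15 days in greenhouse versus controls. Treatments were preemergence on seeded loam/sand soil and postemergence on 1- to 4-leaf plants.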

[7] = system: nightshade (eastern black nightshade, Solanum ptycanthum); assay: Test B pre-/postemergence plant response; details: Preemergence
Outline: as §2

[8] = system: sunflower (common oilseed sunflower, Helianthus annuus); assay: Test B pre-/postemergence plant response; details: Preemergence
Outline: as §2

[9] = system: canarygrass (Phalaris minor); assay: Test B postemergence plant response; details: Postemergence
Outline: (§3)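 Plants at the 1- to 4-leaf stage (2 to 18 cm tall), grown in pots of peat moss/vermiculite medium with wetting agent and starter nutrients, received postemergence applications of test chemicals. After 13 to 15 days in a greenhouse, injury was rated visually against untreated controls on a 0 (no effect) to 100 (complete control) scale.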

[10] = system: winter barley (Hordeum vulgare); assay: Test B postemergence plant response; details: Postemergence
Outline: as §3

[11] = system: windgrass (Apera spica-venti); assay: Test B postemergence plant response; details: Postemergence
Outline: as §3

[12] = system: chickweed (Stellaria media); assay: Test B postemergence plant response; details: Postemergence
Outline: as §3

[13] = Postemergence, 125 g ai/ha, 0 to 100 scale where 0 is no effect and 100 is complete control
[14] = Postemergence, 500 g ai/ha, visual injury, 0 to 100 scale (0 no effect, 100 complete control), approx. ten days
[15] = Preemergence, 125 g ai/ha, 0 to 100 scale, 0 = no effect, 100 = complete control
[16] = Preemergence, 500 g ai/ha, 0 to 100 scale, 0 = no effect, 100 = complete control
[17] = 31 g ai/ha, scale 0 to 100 (0 no effect, 100 complete control)
[18] = 62 g ai/ha, scale 0 to 100, 0 no effect, 100 complete control
[19] = 125 g ai/ha, scale 0 to 100, 0 no effect, 100 complete control
[20] = 31 g ai/ha, 0 to 100 scale (0 no effect, 100 complete control)
[21] = 125 g ai/ha, scale 0 to 100 (0 no effect, 100 complete control)
[22] = 250 g ai/ha, scale 0 to 100 (0 no effect, 100 complete control), 13 to 15 days
[23] = 62 g ai/ha, scale 0 to 100 (0 no effect, 100 complete control)

How did the “Plant response rating, Velvetleaf” value [1, 13] turn out when `CCc1cccc(-n2c(-c3ccccc3)ncc(C(=O)C3=C(O)CCCC3=O)c2=O)c1` [Compound 220] was run?
The value was 100.

What about the “Velvetleaf plant response rating” value [1, 14] of the same molecule?
The value was 100.

And the “Plant response rating, Velvetleaf” value [1, 15]?
Its value is 40.

And the “Plant response rating, Velvetleaf” value [1, 16]?
Its value is 100.

And the “Plant response rating, Morningglory” value [2, 13]?
Its value is 100.

What about the “Morningglory plant response rating” value [2, 14] of the same molecule?
Its value is 100.

What about the “Plant response rating, Morningglory” value [2, 15] of the same molecule?
The value was 0.

And the “Plant response rating, Morningglory” value [2, 16]?
Its value is 70.

What about the “Plant response rating, Wheat” value [3, 13] of the same molecule?
The value was 0.

And the “Wheat plant response rating” value [3, 14]?
Its value is 20.

What about the “Plant response rating, Wheat” value [3, 15] of the same molecule?
Its value is 0.

And the “Plant response rating, Wheat” value [3, 16]?
Its value is 0.

What about the “Plant response rating, Crabgrass, Large” value [4, 13] of the same molecule?
Its value is 50.

And the “Crabgrass, Large plant response rating” value [4, 14]?
The value was 90.

And the “Plant response rating, Crabgrass, Large” value [4, 15]?
The value was 20.

What about the “Plant response rating, Crabgrass, Large” value [4, 16] of the same molecule?
Its value is 90.

What about the “Plant response rating, Foxtail, Giant” value [5, 13] of the same molecule?
The value was 20.

What about the “Foxtail, Giant plant response rating” value [5, 14] of the same molecule?
Its value is 60.

What about the “Plant response rating, Foxtail, Giant” value [5, 15] of the same molecule?
The value was 0.

And the “Plant response rating, Foxtail, Giant” value [5, 16]?
Its value is 40.

What about the “Plant response rating, Corn” value (corn (Zea mays); [13]) of the same molecule?
The value was 0.

What about the “Corn plant response rating” value (corn (Zea mays); [14]) of the same molecule?
The value was 30.

What about the “Plant response rating, Corn” value (corn (Zea mays); [15]) of the same molecule?
The value was 0.

What about the “Plant response rating, Corn” value (corn (Zea mays); [16]) of the same molecule?
Its value is 10.

And the “Plant response rating, Galium” value [6, 17]?
Its value is 0.

What about the “Plant response rating, Galium” value [6, 18] of the same molecule?
The value was 50.

And the “Plant response rating, Galium” value [6, 19]?
Its value is 90.

What about the “Galium plant response rating” value ([6]; 250 g ai/ha, 0 to 100 scale) of the same molecule?
The value was 100.

And the “Plant response rating, Nightshade” value [7, 17]?
The value was 65.

And the “Plant response rating, Nightshade” value [7, 18]?
Its value is 90.

What about the “Plant response rating, Nightshade” value [7, 19] of the same molecule?
The value was 98.

And the “Nightshade plant response rating” value ([7]; 250 g ai/ha, 0 to 100 scale)?
Its value is 100.

What about the “Plant response rating, Sunflower” value [8, 17] of the same molecule?
The value was 0.

What about the “Plant response rating, Sunflower” value [8, 18] of the same molecule?
Its value is 45.

What about the “Plant response rating, Sunflower” value [8, 19] of the same molecule?
The value was 70.

And the “Sunflower plant response rating” value ([8]; 250 g ai/ha, 0 to 100 scale)?
Its value is 90.

And the “Plant response rating, Canarygrass” value [9, 20]?
Its value is 10.

And the “Plant response rating, Canarygrass” value [9, 21]?
The value was 10.

And the “Plant response rating, Canarygrass” value [9, 22]?
Its value is 30.

And the “Plant response rating, Canarygrass” value [9, 23]?
Its value is 10.

And the “Plant response rating, Barley” value [10, 20]?
The value was 10.

What about the “Plant response rating, Barley” value [10, 21] of the same molecule?
The value was 10.

What about the “Plant response rating, Barley” value [10, 22] of the same molecule?
The value was 15.

And the “Plant response rating, Barley” value [10, 23]?
Its value is 10.

What about the “Plant response rating, Windgrass” value [11, 20] of the same molecule?
Its value is 5.

What about the “Plant response rating, Windgrass” value [11, 22] of the same molecule?
The value was 60.

And the “Plant response rating, Windgrass” value [11, 23]?
Its value is 40.

What about the “Plant response rating, Chickweed” value [12, 20] of the same molecule?
The value was 95.

What about the “Plant response rating, Chickweed” value [12, 21] of the same molecule?
The value was 98.

What about the “Plant response rating, Chickweed” value [12, 22] of the same molecule?
The value was 100.

And the “Plant response rating, Chickweed” value [12, 23]?
The value was 95.
